According to US9056835B2, “LPA2 receptor-specific benzoic acid derivatives” (University of Tennessee Research Foundation, priority 2012, dated 2015):

Columns and labels:
[1] = tested on: vector- and LPA2-transduced MEF cells; test: Adriamycin-induced apoptosis, caspase activity assay; assay type: cell-based, mouse; conditions: for decrease in caspase-8 activation / decrease in caspase 9 activation: GRI977143 10 μM; for protection against caspase 3 and 7 activation: GRI977143 above 3 μM; for inhibition of caspase 3/7 activation: 10 μM
Experimental: Experiments were performed on vector- and LPA2-transduced MEF cells. To measure caspase 3, 7, 8, or 9 activity and DNA fragmentation, cells were plated in 48-well plates (2×10^4 cells/well). To detect PARP-1 cleavage and Bax translocation, 1.5×10^6 cells were plated in 10-cm dishes and cultured overnight in full growth medium. The next morning, the growth medium was replaced by serum-starvation medium and cells were pretreated for 1 h with LPA (1-10 μM), OTP (1-10 μM), GRI977143 (1-10 μM), or vehicle. Caspase activity, DNA fragmentation, PARP-1 cleavage, and Bax translocation were measured 5 h after incubation with 1.7 μM Adriamycin or 24 h after serum withdrawal.
Caspase-Glow® 3/7, Caspase-Glow® 8 and Caspase-Glow® 9 reagents were purchased from Promega (Madison, Wis.) and used according to the manufacturer's instructions. Briefly, cells were lysed by adding 50 μl of lysis reagent per well, followed by shaking for 30 min at room temperature. […] lysate were transferred to a 96-well white-wall plate, and luminescence was measured using a BioTek® (Winooski, Vt.) plate reader.

LPA3 = molecular target: T1, LPA3 (Homo sapiens, UniProt Q9UBY5); test: LPA receptor-mediated Ca2+ mobilization assay, LPA3; assay type: cell-based; conditions: for LPA3 Imax (%): inhibition by 10 μM compound of ~EC75 LPA 18:1 Ca2+ response; for inhibition of LPA3 Ca2+ response: 10 μM, ~EC75 LPA 18:1
T1 construct: expressed in transfected cells
T1 sequence (Q9UBY5 1-353): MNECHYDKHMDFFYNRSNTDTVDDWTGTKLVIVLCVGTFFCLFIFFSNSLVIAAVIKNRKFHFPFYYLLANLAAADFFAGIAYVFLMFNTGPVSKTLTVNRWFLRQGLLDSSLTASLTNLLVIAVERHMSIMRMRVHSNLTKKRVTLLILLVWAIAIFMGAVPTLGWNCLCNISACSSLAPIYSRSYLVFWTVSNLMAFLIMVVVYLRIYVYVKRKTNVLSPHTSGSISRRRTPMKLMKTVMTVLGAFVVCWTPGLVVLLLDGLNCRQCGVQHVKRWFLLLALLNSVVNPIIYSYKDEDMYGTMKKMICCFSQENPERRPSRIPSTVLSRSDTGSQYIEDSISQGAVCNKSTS
Experimental: (§1) Similarity searches were performed separately using each fingerprint to quantitate similarity. Hits meeting the 80% similarity threshold from each search were ranked based on the Tanimoto coefficient measure of similarity to a target molecule NSC12404, and the top 75 unique hits from each fingerprint search were selected for further analysis. The 225 compounds selected for further analysis were clustered based on Tanimoto coefficients calculated using Molecular ACCess System-key fingerprints (MACCS keys) and evaluated using the diversity subset function implemented in MOE. This selected a diverse subset of 27 compounds for biological evaluation by choosing the middle compounds in each cluster. These 27 compounds were tested in Ca^2+ mobilization assays at a concentration of 10 μM using stable cell lines individually expressing LPA2 and also in vector-transfected control cells. Hits activating LPA2 were further tested using cells expressing the other established and putative LPA GPCRs. […] They arbitrarily selected GRI977143 for further characterization in cell-based assays.
(§2) J Biol Chem (2009) 284(25): 17304-17319). […] The cells were loaded with Fura-2-acetoxymethyl esther (Fura-2/AM) in Krebs buffer containing 0.01% pluronic acid for 30 min and rinsed with Krebs buffer before measuring Ca^2+ mobilization. The ratio of peak emissions at 510 nm after 2 min of ligand addition was determined for excitation wavelengths of 340 nm/380 nm. All samples were run in quadruplicate. […] The half maximally effective concentration (EC50), and inhibitory constant (Ki) values were calculated by fitting a sigmoid function to dose-response data points using KaleidaGraph software (version 4.1, Synergy Software; […]).
Mouse embryonic fibroblast (MEF) cells were isolated from E13.5 LPA1&2 double knockout (DKO) embryos. MEFs were transduced with empty vector or LPA2-containing lentiviruses and selected with 1.5 μg/ml puromycin. Cells were maintained in Dulbecco's modified Eagle medium (DMEM) supplemented with 10% (V/V) fetal bovine serum (FBS), 2 mM L-glutamine, 100 U/mL penicillin, and 100 μg/mL streptomycin. Serum-free medium contained 0.1% (W/V) BSA in DMEM. The rat intestinal epithelial cell line 6 (IEC-6) was obtained from the American Type Culture Collection (Rockville, Md.) at passage 13; passages 16-21 were used in all experiments. IEC-6 cells were maintained in a humidified 37° C. incubator in an atmosphere of 90% air and 10% CO2. Growth medium consisted of DMEM supplemented with 5% heat inactivated FBS, 10 μg/mL insulin, and 50 μg/mL gentamycin. The composition of the serum-starvation medium was the same as that of the full growth medium except that it contained no FBS. The McArdle rat hepatoma cell line (RH7777) stably expressing LPA2 receptors was a gift from Dr. Fumikazu Okajima (Gunma University, Maebashi, Japan). RH7777 cells stably expressing LPA1 or LPA3 receptors were generated in-house and had been characterized earlier. Wild type and LPA receptor (LPAR) stably transfected RH7777 cells were grown in DMEM supplemented with 10% FBS and 2 mM L-glutamine in the presence of 250 μg/ml G418. Chinese hamster ovary (CHO) cells stably expressing either vector or LPA4 receptor were a kind gift from Dr. Takao Shimizu (Tokyo University; Tokyo, Japan). Cells were cultured in Ham's F12 medium containing 10% FBS, 2 mM L-glutamine, and 350 μg/ml G418. Rat neuroblastoma cells (B103) were transduced with the lentivirus harboring wild type of FLAG-LPA5 and selected with puromycin to establish the stable cell lines. The stable cells were maintained in DMEM supplemented with 10% FBS and 0.4 μg/ml puromycin. GPR87- and P2Y10-expressing CHO cells and vector-transfected control cells were a gift from Dr. Norihisha Fujita (Ritsumeikan University; Shiga, Japan).

LPA5 = molecular target: T2, LPA5 (Homo sapiens, UniProt Q9H1C0); test: LPA receptor-mediated Ca2+ mobilization assay, LPA5; assay type: cell-based; conditions: agonist
T2 construct: FLAG (N); expressed in transfected cells; host or cells: B103 rat neuroblastoma, lentiviral transduction, puromycin selection
Experimental: as §1, §2
Mouse embryonic fibroblast (MEF) cells were isolated from E13.5 LPA1&2 double knockout (DKO) embryos. MEFs were transduced with empty vector or LPA2-containing lentiviruses and selected with 1.5 μg/ml puromycin. Cells were maintained in Dulbecco's modified Eagle medium (DMEM) supplemented with 10% (V/V) fetal bovine serum (FBS), 2 mM L-glutamine, 100 U/mL penicillin, and 100 μg/mL streptomycin. Serum-free medium contained 0.1% (W/V) BSA in DMEM. The rat intestinal epithelial cell line 6 (IEC-6) was obtained from the American Type Culture Collection (Rockville, Md.) at passage 13; passages 16-21 were used in all experiments. IEC-6 cells were maintained in a humidified 37° C. incubator in an atmosphere of 90% air and 10% CO2. Growth medium consisted of DMEM supplemented with 5% heat inactivated FBS, 10 μg/mL insulin, and 50 μg/mL gentamycin. The composition of the serum-starvation medium was the same as that of the full growth medium except that it contained no FBS. […]

[2] = LPA2-transduced MEF, LPA and OTP 1 μM
[3] = vector-transduced MEF, LPA and OTP 1 μM

T2 sequence (Q9H1C0 whole entry, species assumed): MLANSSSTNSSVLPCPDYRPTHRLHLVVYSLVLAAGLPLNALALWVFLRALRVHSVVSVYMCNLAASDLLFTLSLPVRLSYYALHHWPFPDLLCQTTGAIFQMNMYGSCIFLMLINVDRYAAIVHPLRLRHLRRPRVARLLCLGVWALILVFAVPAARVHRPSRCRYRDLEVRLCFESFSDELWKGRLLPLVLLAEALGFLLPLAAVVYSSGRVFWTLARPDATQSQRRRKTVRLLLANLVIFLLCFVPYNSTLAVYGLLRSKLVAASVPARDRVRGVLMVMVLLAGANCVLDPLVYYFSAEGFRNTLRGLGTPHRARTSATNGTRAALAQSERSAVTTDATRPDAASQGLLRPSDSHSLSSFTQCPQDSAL

| Compound | decrease in caspase-8 activation [1, 2] | protection against caspase 3 and 7 activation ([1]; LPA2-transduced MEF) | inhibition of caspase 3/7 activation ([1]; vector-transduced MEF) | decrease in caspase 8 activation [1, 3] | LPA3 Imax (%) (LPA3) | EC50 (LPA5) | inhibition of LPA3 Ca2+ response (LPA3) | Ki (LPA3; antagonist, Ca2+ mobilization, read-out: LPA3 K) | EC50 (LPA3; agonist, Ca2+ mobilization) | decrease in caspase 9 activation ([1]; LPA2-transduced MEF, OTP 1 μM) | decrease in caspase 9 activation [1, 3] |
| --- | --- | --- | --- | --- | --- | --- | --- | --- | --- | --- | --- |
| CCCCCCCC/C=C\CCCCCCCC(=O)OC[C@@H](O)COP(=O)(O)O [LPA 18:1, Lysophosphatidic acid (18:1)] | 36±1% | protected | 26±1% | 12±2% | – | – | – | – | – | – | – |
| O=C(O)c1cc(Cl)c(Cl)cc1C(=O)Nc1ccc2c(c1)C(=O)c1ccccc1-2 [Compound H2L5547924] | – | – | – | – | 66% | > 10 µM | – | – | – | – | – |
| O=C(O)c1ccccc1C(=O)Nc1ccc2c(c1)C(=O)c1ccccc1C2=O [Compound H2L5828102] | – | – | – | – | 100% | > 10 µM | fully inhibited | 1.5 µM | – | – | – |
| octadecenyl thiophosphate [OTP] | 33±2% | protected | did not attenuate | 15±5% | – | 0.003 µM | – | – | 0.297 µM | 38±1% | – |
| O=C(O)c1ccccc1C(=O)Nc1ccc2c(c1)C(=O)c1ccccc1-2 [NSC12404] | – | – | – | – | 61% | > 10 µM | inhibited LPA3 | – | – | – | – |
| O=C(O)c1ccccc1SCCCN1C(=O)c2cccc3cccc(c23)C1=O [GRI977143] | 41±5% | significant protection | did not attenuate | – | 55% | – | inhibited LPA3 | – | – | 46±4% | did not affect |
